From paper PMC5700161, “Structure of human immunoproteasome with a reversible and noncompetitive inhibitor that selectively inhibits activated lymphocytes” (Nature Communications, 2017)

Columns and labels:
[1] = test system: T cells; test: In vitro T-cell proliferation, anti-CD3/anti-CD28; format: cell-based, human; settings: anti-CD3 and anti-CD28 stimulation
From the text: (§1) As we observed selective cytotoxicity of PKS21221 in activated B cells and ASCs compared to non-activated B cells, we asked whether this is the case in proliferating T cells. We activated human T cells to proliferate with anti-CD3 and anti-CD28 in the presence or absence of PKS21221 or bortezomib. […] To examine whether these inhibitors are cytotoxic preferentially to proliferating cells, we triggered T-cell proliferation with anti-CD3/anti-CD28 for 4 days (in the absence of inhibitors), treated the cells with PKS21221 for the next 24 h and determined cell survival with Annexin V and 7-AAD (Fig. 6c, d).
(§2) Fig. 6 Effect of PKS21221 and bortezomib (BTZ) on T-cell proliferation. T cells were isolated from human PBMC and stimulated with anti-CD3 (1 µg per ml) and anti-CD28 (1 µg per ml) for 4 days. […] Apoptosis c and viability d were assessed in proliferating and non-proliferating population of T cells. […]
(§3) T cells were isolated from human PBMCs using Human T-cell Isolation kit (StemCell Technologies, Cat#17951). […] Cells were counted and loaded with 5 μM CellTrace Violet (Thermo Fisher) in phosphate buffered saline (PBS) for 10 min at 37 °C, followed by wash in 10% fetal calf serum (FCS)-supplemented RPMI 1640 media. […] The viability and apoptosis were assessed using Annexin V Apoptosis Detection Kit (BD Biosciences). […]

[2] = test system: CD19+CD38+CD27+ ASCs; test: Survival and apoptosis of differentiated antibody-secreting cells (ASCs) from PBMC, Annexin V/7-AAD; format: cell-based, human; settings: added for 12 hours on Day 5
Procedure: (§4) The immunoproteasome plays important roles in T cell differentiation and proliferation and dendritic cell activation and maturation[14],[20],[24]. However, its role in B cell differentiation is not well understood. […] Differentiated ASCs were then exposed to PKS21221 at indicated concentrations and cell survival was determined with Annexin V and 7-aminoactinomycin D (7-AAD) at three-time points (12-h, 24-h, and 48-h after treatment). […] In addition, the cytotoxicity of PKS21221 to different cell populations in PBMC was examined and compared to the cytotoxicity of bortezomib. PBMCs were incubated with PKS21221 or bortezomib, and the viability was assessed in T cells (CD3^+), B cells (CD19^+), monocytes (CD14^+) and dendritic cells (CD3^−CD19^−CD14^−CD16^−CD11c^+HLA-DR^+), respectively (Supplementary Fig. 13b–e).
PBMCs were cultured with or without IL-2/R848 for 5 days, followed by 12-h incubation with PKS21221 at different concentrations. a Representative flow cytometry plots of cells treated with IL-2 and R848 in the presence and absence of PKS21221. […] Annexin V^+7-AAD^− cells were referred as “Early apoptosis” population, and Annexin V^+7-AAD^+ cells were referred as “Dead” population. d Percentage of early apoptotic ASCs (left) and dead ASCs (right), after 12-h incubation with PKS21221.
Human peripheral blood samples were obtained from five different healthy volunteers (BWH Specimen Bank). Peripheral blood mononuclear cells (PBMCs) were isolated by density gradient centrifugation using Lymphoprep (StemCell Technologies). PBMCs were cultured at 1.5 × 10^6 cells per mL in RPMI 1640 media (Lonza), supplemented with 10% human serum (GemCell) (10% HS-RPMI), recombinant human IL-2 10 ng per mL (or 100 U per ml, BioLegend) and R848 1 µg per mL (Cayman Chemicals) for 5 days, at 37 °C, 5% CO2. PKS21221 in DMSO, or DMSO only for control, was added to the culture media on day 5, and cells were incubated for additional 12, 24, and 48 h.

[3] = test system: proliferating T cells; test: Apoptosis and viability of proliferating vs non-proliferating T cells; format: cell-based, human; settings: 4 days anti-CD3/anti-CD28, then 24 h; PKS21221 1 µM, BTZ 10 nM
From the text: as §1, §2, §3

[4] = test system: resting CD3+ T cells and CD19+ B cells; test: Viability assay of human PBMC populations (Fixable Viability dye); format: cell-based; settings: 10 nM bortezomib vs 1 μM PKS21221
Procedure: as §4
(1 picture or pasted object on this page, not shown here)

CC(C)C[C@H](NC(=O)[C@H](Cc1ccccc1)NC(=O)c1cnccn1)B(O)O [Bortezomib, bortezomib, reference compound]
proliferation of T cells [1]: inhibited proliferation of T cells in a dose-dependent manner
ASC percentage in ASC differentiating culture [2]: decreased the percentage of
apoptosis and cell death, proliferating vs non-proliferating T cells [3]: induced apoptosis and cell death to a greater extent in proliferating T cells than in non-proliferating T cells
cytotoxicity to resting CD3+ T cells and CD19+ B cells [4]: more cytotoxic at 10 nM than PKS2122 at 1 µM
